Test results published in patent US20070110734A9, “Methods and compositions using cellular asialodeterminants and glycoconjugates for targeting cells to tissues and organs” (Department of Veterans Affairs, Rehabilitation R&D Service, priority 2002, published 2007).
“Also recorded” adds a separate entry of the source.

Key:
Format in all cases: cell-based, human
HEPG2 (ASGPR+) [1] = assay: Adherence of NK/LAK activity to HEPG2 monolayers at 4° C; details: monolayer pretreated with 200 μg/ml protein, 2 hours at 4° C, assayed on Raji
Method: (§1) Control cells (no IL-2 treatment) or LAK cells (IL-2-treated human peripheral blood lymphocytes cultured 10U IL-2/ml for 3 days) were adhered to a monolayer of HEP G2 cells for 2 hours at 4° C. The monolayer was pretreated either with asialofetuin (ASF, 200 μg/ml) in media or with fetuin (F, control, 200 μg/ml)) in media. After the Control or LAK cells had been incubated on the monolayer, these cells were then decanted, washed, and tested for cytotoxic capacity in a ^51Cr-release assay against the NK-resistant target, Raji.

HEPG2 (ASGPR+) [2] = assay: Adherence of NK/LAK activity to HEPG2 monolayers at 23° C; details: 23° C, 200 μg/ml
Method: (§2) This experiment is the same as above, except that the adherence to monolayers was performed at 23° C. and not 4° C., for 2 hours. Two monolayers were used: HEPG2, an ASGPR+ cell line, and CAKI-2 (human renal cell carcinoma), an ASGPR− cell line. The effector cell populations that were used were: an untreated 3-day old LAK preparation (LAK) and the same population treated with Vibrio cholera neuraminidase (LAK/NS) (30 mU/1×10^7 cells/200 μl). The neuraminidase-treated population was the asialopositive lymphocyte control. All cell populations regardless of treatment were greater than 90% viable at the time of assay. Each type of effector population was incubated with media alone, 200 μg/ml ASF or F, as controls. All effectors were assayed on RAJI (LAK-sensitive target; NK-insensitive target) or K562 (NK/LAK-sensitive target); the E:T ratios and the graphic presentation are the same above.
(§3) Five-day LAK preparations (20 U/ml; 1 Dupont unit=44.5 BRMP units) grown in AIM-V (Gibco) were treated (according to the protocols in B. 1.2.3 & 1.2.4) with 3 OmU Vibric Cholera neuramindase, 0.48 mU 2,3-or 10 mu 2,6-silalyltransferase per 107 cells. Some of the effectors were incubated in media, 10% PBS in RPMJ 1640 at 23° C. for 2 hours. 2×107 effectors from the untreated LALK, neuramithdase-treated LAK, LAK treated with 2,3 or 2,6 were suspended in 15 ml media and placed onto either HEPG2 (ASGPR+) or CAKI-2 (ASGPR−) monolayers at 23° C. for 2 hours. The flasks were rocked every 15 minutes. The nonadherent cells from these monolayers were decanted and assayed against K562 and RAJI, in addition to the unadhered controls. The E:T ratios used were 40, 20, 10, and 5 to 1.

CAKI-2 (ASGPR−) = assay: Adherence of NK/LAK activity to CAKI-2 monolayers at 23° C; details: 23° C; 200 μg/ml
Method: as §2, §3

Caki-2 Targets [3] = assay: 51Cr-release assay of LAK effectors against CAKI-2 with agent added; details: for % 51Chromium Release from Caki-2 Targets: agent 250 μg per well, 5-day LAK, 4-hour incubation
Excerpt: A working hypothesis is that LAK/NK cells bind to HEPG2 via at least two receptors or recognition structures: 1) the ASGPR, which binds an asialodeterminant on the LAK/NK population and 2) the “LAK” or “NK” recognition structure for a target epitope. The first should be inhibitable by ASF; the second should not be. Binding to CAKI-2 (ASGPR−) should not be inhibited by ASF and is due to a LAK or NK recognition structure binding to the target epitope. This can be further supported by data derived from experiments (see below) in which 250 μg/well of ASF or F were added to the ^51Cr-release assay of LAK effectors against the labeled target CAKI-2.
(% SPECIFIC RELEASE was determined from quadruplicates whose raw counts per minute differed by less than 10 percent; the assay was a standard 4-hour incubation.)

[4] = test system: RAJI (LAK-sensitive target; NK-insensitive target); assay: Cytotoxic capacity of LAK effectors in 51Cr-release assay on RAJI
Method: as §1, §2, §3

[5] = test system: K562 (NK/LAK-sensitive target); assay: Cytotoxic capacity of IL-2 activated NK effectors in 51Cr-release assay on K562; details: 200 μg/ml; 23° C
Method: as §2, §3

Caki-2 Targets [6] = assay: 51Cr-release assay of LAK effectors against CAKI-2 with agent added; details: concentration of 1 mg/ml

With asialofetuin [ASF] the “adherence of LAK activity to HEPG2 monolayer, in words” value (HEPG2 (ASGPR+) [1]) was “virtually all LAK activity can be inhibited from adhering”, the “adherence of LAK activity to HEPG2 monolayer, in words” value (HEPG2 (ASGPR+) [1]; listed as asialofetuin) was “not removed; also recorded: does not adhere” and the “inhibition of adherence to HEPG2 of LAK activity (assayed on RAJI)” value (HEPG2 (ASGPR+) [2]) was “could not be inhibited; also recorded: cannot be inhibited”. For the same substance, the “inhibition of adherence of LAK activity of the neuraminidase-treated population to HEPG2” value (HEPG2 (ASGPR+) [2]; assayed on RAJI) was “only marginally be inhibited”, the “inhibition of adherence to HEPG2 of IL-2 activated NK (assayed on K562)” value (HEPG2 (ASGPR+) [2]; with or without neuraminidase treatment) was “partially inhibited” and the “inhibition of adherence to CAKI-2 of IL-2 activated NK or LAK activity” value (CAKI-2 (ASGPR−)) was “could not be inhibited; also recorded: cannot be blocked”. The “% 51Chromium Release from Caki-2 Targets” value (Caki-2 Targets [3]; E:T 5:1) was 13%, the “% 51Chromium Release from Caki-2 Targets” value (Caki-2 Targets [3]; E:T 10:1) was 24% and the “% 51Chromium Release from Caki-2 Targets” value (Caki-2 Targets [3]; E:T 20:1) was 41%. For the same substance, the “% 51Chromium Release from Caki-2 Targets” value (Caki-2 Targets [3]; E:T 40:1) was 52%, the “blocking of LAK killing of the tumor target CAKI-2, in words” value (Caki-2 Targets [3]; preincubation of targets and addition to the assay at 250 μg per well) was “does not block” and the “activity of LAK or Control preparations incubated with the protein alone versus untreated LAK” value ([4]; 200 μg/ml for 2 h at 40C, no monolayer) was “identical activity”. For the same substance, the “ability of effectors (LAK or LAK/NS) to kill RAJI after preincubation with the protein” value ([4]; 200 μg/ml, 23° C) was “does not affect”, the “ability of effectors (LAK or LAK/NS) to kill K562 after preincubation with the protein” value [5] was “does not affect” and the “inhibition of the ability of LAK to kill CAKI-2 target, in words” value (Caki-2 Targets [6]) was “did not inhibit”.
